One series has as its system GSK3β(S9). The series can be described thus: Phospho-GSK3β(S9) in PC3 cell lysates, Luminex multiplex. The series is classed as cell-based, human. The settings on record: PC3, 1 hour exposure; read-out: p-GSK3β (S9) IC50. An excerpt: The direct substrate for TORC1 was 4E-BP 1(T46) and indirect downstream substrate was S6RP(S235/S236). The direct substrate for TORC2 was Akt(S473) and indirect downstream substrates measured were GSK3β(S9) and PRAS40(T246). Additionally, the phosphorylation status of Akt(T308), a phosphorylation site for PDK1 was monitored.
The multiplex Luminex assay format differs from conventional enzyme-linked immunosorbent assay (ELISA) in that the multiplex capture antibody is attached to a polystyrene bead whereas the ELISA capture antibody is attached to the microplate well. The use of the suspension bead-based technology enables the multiplexing capabilities of the Luminex assays. The xMAP® technology uses 5.6 micron polystyrene microspheres, which are internally dyed with red and infrared fluorophores of differing intensities. Each bead is given a unique number, or bead region, allowing differentiation of one bead from another. Beads covalently bound to different specific antibodies can be mixed in the same assay, utilizing a 96-well microplate format. At the completion of the sandwich immunoassay, beads can be read, using the Luminex 100™ or Luminex 200 detection system, in single-file by dual lasers for classification and quantification of each analyte. […]

Series [1] in a line: 5-day tolerability study of Compound 1 in PC3 tumor-bearing mice (body weight). The series is classed as in vivo, SCID mice. As for the experimental part:
Plasma and tumor samples were collected 24 hours after the last dose in each dose group.
Mice were monitored daily for clinical signs and body weight changes. At the end of the study, mice were euthanized and plasma and tumor samples were collected for PK/PD determination. PD markers, pS6 and pAkt, were measured using MSD technology.
Initial body weights were recorded prior to the initiation of treatment using a digital scale. The percent body weight change during the course of the study was calculated using initial body weight measurements. Body weights of each animal were measured twice a week at the same time that tumor measurements were taken. Body weights were measured more frequently if significant decreases were noted during the course of the study.
In preparation for xenograft studies, a 5-day tolerability study was performed. […] The animals in the 50 mg/kg dose group lost >17% of the starting body weight by Day 5 (24 hours after the 4th dose). The animals in this group were euthanized. By Day 6 (24 hours after the 5th dose), the animals in the 25 mg/kg and 10 mg/kg groups lost 9% and 4%, respectively, of the starting body weight.

The test system of the next series is AKT (T308). Briefly: Phospho-AKT (T308) in PC-3 cell lysates, MSD (Compound 2). It is filed as cell-based. Particulars: Homo sapiens; PC-3, 1 hour; read-out: PDK1 AKT (T308) IC50. As for the experimental part: The direct substrate for mTORC1 was 4E-BP1(T46) and the indirect downstream substrate was S6RP (S235/S236). The direct substrate for mTORC2 was AKT (S473) and the indirect downstream substrates measured were GSK3β(S9) and PRAS40 (T246). Additionally, the phosphorylation status of AKT (T308), a phosphorylation site for PDK1, was monitored. Concentration-response curves were plotted and IC50 values determined. Cells were plated in 96-well flat bottom plates at the required density (PC-3 cells/well) and the cells were allowed to equilibrate at 37° C., 5% CO2 overnight. […] After the incubation period, the culture media was removed carefully with an aspirator. The plate was placed on ice and 50 μL of 1× Tris Lysis Buffer was added to each well. The plate was placed on a shaker at 4° C. for 1 hour to lyse the cells. At that point, the plate was either frozen at -80° C. for later analysis or immediately assayed for phosphoproteins as described below. To monitor interassay variability, a reference standard was included in the assay for PC-3 cells and the coefficient of variation for assay of […]) was 9.3% (n=50) and for assay of p-AKT (S473) was 28.6% (n=50). The assay plate was incubated with 150 μL of MSD Blocking Buffer for 1 hour with shaking at room temperature. […] Then 150 μL of 1×MSD Read Buffer T was added to each well. The plate was read on the SECTOR Imager plate reader.

We go through two compounds from patent publication US20140113904A1, “TREATMENT OF CANCER WITH TOR KINASE INHIBITORS” (SIGNAL PHARMACEUTICALS, LLC, priority 2012, published 2014).

Consider `CO[C@H]1CC[C@H](N2C(=O)CNc3ncc(-c4ccc(C(C)(C)O)nc4)nc32)CC1` [Compound 1, 7-(6-(2-hydroxypropan-2-yl)pyridin-3-yl)-1-((1r,4r)-4-methoxycyclohexyl)-3,4-dihydropyrazino-[2,3-b]pyrazin-2(1H)-one], for which, in the series on GSK3β(S9), the IC50 was determined as 230 nM. The “loss of starting body weight” value was 4% in series [1] (10 mg/kg QD oral, Day 6 (24 hours after the 5th dose)); 9% in series [1] (25 mg/kg QD oral, Day 6 (24 hours after the 5th dose)); greater than 17% in series [1] (50 mg/kg QD oral, Day 5 (24 hours after the 4th dose)).

As to `CCN1C(=O)CNc2ncc(-c3ccc(-c4nc[nH]n4)nc3C)nc21` [Compound 2, 1-ethyl-7-(2-methyl-6-(1H-1,2,4-triazol-3-yl)pyridin-3-yl)-3,4-dihydropyrazino[2,3-b]pyrazin-2(1H)-one], in the series on AKT (T308), the IC50 turned out to be 48 nM.

As usually defined, the IC50 is the concentration needed to halve the response being measured.
